Reference: patent publication US10604512B2, “3-(1H-indol-2-yl)-1H-indazoles and therapeutic uses thereof” (Samumed, LLC, priority 2015, dated 2020)

Tests used:
[1] = system: Wnt activity (Sp5-Luc reporter, TCF/LEF binding sites) in SW480 colon carcinoma cells; assay: Screening assay for Wnt activity: Sp5-Luc reporter gene assay in stably transduced SW480 colon carcinoma cells; assay type: cell-based; details: Homo sapiens; for EC50: overnight incubation, 10-point curve from 10 μM
How it was run: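 SW480 cells stably transduced with a luciferase reporter driven by an Sp5 promoter of eight TCF/LEF sites were plated at 4,000 cells/well in 1% FBS medium. They were exposed overnight at 37° C to a 10-point 1:3 dilution series from 10 μM (0.1% DMSO). Luminescence was normalized to DMSO for four-parameter EC50, or percent inhibition at 10 μM.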

[2] = system: primary human mesenchymal stem cells (hMSCs); assay: Induction of chondrogenesis in primary human mesenchymal stem cells (nodule imaging, Rhodamine B / Nile Red); assay type: cell-based; details: for EC50: concentration required to induce 50% levels of chondrogenesis vs TGF-β3 positive control, read-out: Conc (nM) of 50% TGF-β3 activity; for Emax: maximum chondrogenesis activity relative to TGF-β3 (10 ng/mL) positive control, read-out: Max. Activity as % TGF-β3 activity
Description: Representative compounds were screened using primary human mesenchymal stem cells (hMSCs) to determine their ability to induce chondrogenesis (process by which cartilage is developed).
Primary human mesenchymal stem cells (hMSCs) were purchased from Lonza (Walkersville, Md.) and expanded in Mesenchymal Stem Cell Growth Media (Lonza). Cells between passage 3 and 6 were used for the experiments.
Each compound was dissolved in DMSO as a 10 mM stock and used to prepare compound source plates. For the 96 well assay, serial dilution (1:3, 6-point dose-response curves from 2700 nM to 10 nM) and compound transfer was performed using the ECHO 550 (Labcyte, Sunnyvale, Calif.) into 96-well clear bottom assay plates (Greiner Bio-One) with appropriate DMSO backfill for a final DMSO concentration of 0.03%. hMSCs were plated at 20,000 cells/well in 250 μL/well Incomplete Chondrogenic Induction Medium (Lonza; DMEM, dexamethasone, ascorbate, insulin-transferrin-selenium [ITS supplement], gentamycin-amphotericin [GA-1000], sodium pyruvate, proline and L-glutamine). TGF-β3 (10 ng/mL) was used as a positive control for differentiation while negative control wells were treated with 75 nL DMSO for normalization and calculating EC50 values. For the 384 well assay, serial dilution (1:3, 8-point dose-response curves from 5000 nM to 2.2 nM) and compound transfer was performed using the ECHO 550 (Labcyte, Sunnyvale, Calif.) into 384-well clear bottom assay plates (Greiner Bio-One) with appropriate DMSO backfill for a final DMSO concentration of 0.03%. hMSCs were plated at 8,000 cells/well in 80 μL/well Incomplete Chondrogenic Induction Medium (Lonza; DMEM, dexamethasone, ascorbate, insulin-transferrin-selenium [ITS supplement], gentamycin-amphotericin [GA-1000], sodium pyruvate, proline and L-glutamine). TGF-β3 (10 ng/mL) was used as a positive control for differentiation while negative control wells were treated with 25 nL DMSO for normalization and calculating EC50 values. Cells were incubated at 37° C. and 5% CO2 for 6 days. To image chondrogenic nodules, the cells were fixed using 4% formaldehyde (Electron Microscopy Sciences), and stained with 2 μg/mL Rhodamine B (Sigma-Aldrich) and 20 μM Nile Red (Sigma-Aldrich) [Johnson K., et. al, A Stem CellBased Approach to Cartilage Repair, Science, (2012), 336(6082), 717-721]. The nodules imaged (25 images per well for 96 well plates and 9 images per well for 384 well plates at 10× magnification) by excitation at 531 nm and emission at 625 nm and quantified using the CellInsight CX5 (Thermo Scientific). Area of nodules in each well was normalized to the average of 3 DMSO treated wells on the same plate using Excel (Microsoft Inc.). The normalized averages (fold change over DMSO) of 2 or 3 replicate wells for each compound concentration were calculated. Due to solubility limitations of some of the compounds, curve fitting was incomplete leading to inaccurate EC50 determinations.
Using TGF-β3 as a positive control, the concentration of representative compounds required to induce 50% levels of chondrogenesis is reported. In addition, the maximum activity of each compound and the respective dose that each compound reached maximum chondrogenesis activity is reported.

| Structure (SMILES) | EC50 [1] [µM] | EC50 [2] [nM] | Emax [2] [%] | inhibition at 10 µM ([1]; at 10 μM, given where EC50 >10 μM, read-out: percent inhibition at 10 μM) [%] |
| --- | --- | --- | --- | --- |
| CCC(=O)Nc1cncc(-c2ccc3[nH]nc(-c4cc5c(-c6cccnc6)cccc5[nH]4)c3c2)c1 [Compound 85, N-(5-(3-(4-(Pyridin-3-yl)-1H-indol-2-yl)-1H-indazol-5-yl)pyridin-3-yl) propionamide] | 0.065 | 10 | 197 |  |
| c1cncc(-c2ccc3[nH]nc(-c4cc5c(-c6cccnc6)cccc5[nH]4)c3c2)c1 [Compound 88, 5-(Pyridin-3-yl)-3-(4-(pyridin-3-yl)-1H-indol-2-yl)-1H-indazole] | 0.5 | 10 | 183 |  |
| CC(C)C(=O)Nc1cncc(-c2ccc3[nH]nc(-c4cc5c(-c6cccnc6)cccc5[nH]4)c3c2)c1 [Compound 93, N-(5-(3-(4-(Pyridin-3-yl)-1H-indol-2-yl)-1H-indazol-5-yl)pyridin-3-yl) isobutyramide] | 0.085 | 30 | 199 |  |
| c1cncc(-c2cccc3[nH]c(-c4n[nH]c5ccc(-c6cncc(CN7CCCCC7)c6)cc45)cc23)c1 [Compound 99, 5-(5-(Piperidin-1-ylmethyl)pyridin-3-yl)-3-(4-(pyridin-3-yl)-1H-indol-2-yl)-1H-indazole] | 5 | 10 | 212 |  |
| c1cncc(-c2cccc3[nH]c(-c4n[nH]c5ccc(-c6cncnc6)cc45)cc23)c1 [Compound 111, 3-(4-(Pyridin-3-yl)-1H-indol-2-yl)-5-(pyrimidin-5-yl)-1H-indazole] | 0.99 | 10 | 202 |  |
| Cc1ccncc1-c1ccc2[nH]nc(-c3cc4c(-c5ccncc5)cccc4[nH]3)c2c1 [Compound 117, 5-(4-Methylpyridin-3-yl)-3-(4-(pyridin-4-yl)-1H-indol-2-yl)-1H-indazole] | > 10 | 10 | 190 | 19.6 |
| CCNCc1cncc(-c2ccc3[nH]nc(-c4cc5c(-c6ccncc6)cccc5[nH]4)c3c2)c1 [Compound 118, N-((5-(3-(4-(Pyridin-4-yl)-1H-indol-2-yl)-1H-indazol-5-yl)pyridin-3-yl)methyl)ethanamine] | 1.44 | 30 | 199 |  |
| CN(C)Cc1cncc(-c2ccc3[nH]nc(-c4cc5c(-c6ccncc6)cccc5[nH]4)c3c2)c1 [Compound 125, N,N-dimethyl-1-(5-(3-(4-(Pyridin-4-yl)-1H-indol-2-yl)-1H-indazol-5-yl)pyridin-3-yl)methanamine] | 0.275 | 30 | 191 |  |
| O=C(Nc1cncc(-c2ccc3[nH]nc(-c4cc5c(-c6ccncc6)cccc5[nH]4)c3c2)c1)C1CC1 [Compound 132, N-(5-(3-(4-(Pyridin-4-yl)-1H-indol-2-yl)-1H-indazol-5-yl)pyridin-3-yl) cyclopropanecarboxamide] | 0.135 | 10 | 219 |  |
| Nc1cncc(-c2ccc3[nH]nc(-c4cc5c(-c6ccccn6)cccc5[nH]4)c3c2)c1 [Compound 143, 5-(3-(4-(Pyridin-2-yl)-1H-indol-2-yl)-1H-indazol-5-yl)pyridin-3-amine] | 0.06 | 10 | 224 |  |
| c1ccc(-c2cccc3[nH]c(-c4n[nH]c5ccc(-c6cncc(CN7CCCC7)c6)cc45)cc23)nc1 [Compound 154, 3-(4-(Pyridin-2-yl)-1H-indol-2-yl)-5-(5-(pyrrolidin-1-ylmethyl)pyridin-3-yl)-1H-indazole] | 0.49 | 10 | 180 |  |
| c1ccc(-c2cccc3[nH]c(-c4n[nH]c5ccc(-c6cncnc6)cc45)cc23)nc1 [Compound 167, 3-(4-(Pyridin-2-yl)-1H-indol-2-yl)-5-(pyrimidin-5-yl)-1H-indazole] | 1.22 | 10 | 203 |  |
| CCC(=O)Nc1cncc(-c2ccc3[nH]nc(-c4cc5c(N6CCCCC6)cccc5[nH]4)c3c2)c1 [Compound 169, N-(5-(3-(4-(Piperidin-1-yl)-1H-indol-2-yl)-1H-indazol-5-yl)pyridin-3-yl) propionamide] | 1.4 | 30 | 171 |  |
| CN(C)Cc1cncc(-c2ccc3[nH]nc(-c4cc5c(N6CCCCC6)cccc5[nH]4)c3c2)c1 [Compound 181, N,N-Dimethyl-1-(5-(3-(4-(piperidin-1-yl)-1H-indol-2-yl)-1H-indazol-5-yl)pyridin-3-yl)methanamine] | 0.575 | 10 | 205 |  |
| O=C(Nc1cncc(-c2ccc3[nH]nc(-c4cc5c(N6CCCCC6)cccc5[nH]4)c3c2)c1)C1CC1 [Compound 188, N-(5-(3-(4-(Piperidin-1-yl)-1H-indol-2-yl)-1H-indazol-5-yl)pyridin-3-yl) cyclopropanecarboxamide] | 0.195 | 10 | 183 |  |
| FC1(F)CCN(Cc2cncc(-c3ccc4[nH]nc(-c5cc6c(N7CCCCC7)cccc6[nH]5)c4c3)c2)C1 [Compound 194, 5-(5-((3,3-Difluoropyrrolidin-1-yl)methyl)pyridin-3-yl)-3-(4-(piperidin-1-yl)-1H-indol-2-yl)-1H-indazole] | 0.75 | 30 | 160 |  |
| CN1CCN(c2cccc3[nH]c(-c4n[nH]c5ccc(-c6cncc(N)c6)cc45)cc23)CC1 [Compound 227, 5-(3-(4-(4-Methylpiperazin-1-yl)-1H-indol-2-yl)-1H-indazol-5-yl)pyridin-3-amine] | 0.474 | 100 | 166 |  |
| CC(C)C(=O)Nc1cncc(-c2ccc3[nH]nc(-c4cc5c(N6CCN(C)CC6)cccc5[nH]4)c3c2)c1 [Compound 233, N-(5-(3-(4-(4-Methylpiperazin-1-yl)-1H-indol-2-yl)-1H-indazol-5-yl)pyridin-3-yl)isobutyramide] | 0.565 | 100 | 196 |  |
| CN1CCN(c2cccc3[nH]c(-c4n[nH]c5ccc(-c6cncc(CN7CCCCC7)c6)cc45)cc23)CC1 [Compound 239, 3-(4-(4-Methylpiperazin-1-yl)-1H-indol-2-yl)-5-(5-(piperidin-1-ylmethyl)pyridin-3-yl)-1H-indazole] | 4.97 | 100 | 198 |  |
| CN1CCN(c2cccc3[nH]c(-c4n[nH]c5ccc(-c6cncc(NC(=O)C7CCCC7)c6)cc45)cc23)CC1 [Compound 246, N-(5-(3-(4-(4-Methylpiperazin-1-yl)-1H-indol-2-yl)-1H-indazol-5-yl)pyridin-3-yl)cyclopentanecarboxamide] | 1.25 | 100 | 185 |  |
| CN1CCN(c2cccc3[nH]c(-c4n[nH]c5ccc(-c6cncnc6)cc45)cc23)CC1 [Compound 251, 3-(4-(4-Methylpiperazin-1-yl)-1H-indol-2-yl)-5-(pyrimidin-5-yl)-1H-indazole] | 1.42 | 100 | 165 |  |
| c1cncc(-c2ccc3[nH]nc(-c4cc5ccccc5[nH]4)c3c2)c1 [Compound 256, 3-(1H-Indol-2-yl)-5-(pyridin-3-yl)-1H-indazole] | 0.018 | 10 | 162 |  |
| CCNCc1cncc(-c2ccc3[nH]nc(-c4cc5ccccc5[nH]4)c3c2)c1 [Compound 258, N-((5-(3-(1H-Indol-2-yl)-1H-indazol-5-yl)pyridin-3-yl)methyl)ethanamine] | 0.415 | 10 | 532 |  |
